One experiment concerns ovariectomized rats. Put plainly: 20-day treatment with EM-652.HCl, body fat, body weight and energy balance (Example 3). The experiment is classed as in vivo, rat. The settings on record: OVX rats, 20 days. Here is the method: Eight to ten week-old female Sprague-Dawley rats (Crl:CD(SD)Br) (Charles River Laboratory, St-Constant, Canada) weighing approximately 200-225 g at the start of treatment were used. The animals were acclimatized to the environmental conditions (temperature: 22±3° C.; 10-h light-14-h dark cycles, lights on at 06:00 h) for 1 week before starting the experiment. The animals were housed individually in stainless steel cages of conventional design and were allowed free access to tap water and a high carbohydrate mixed diet composed of (g/100 g): Corn starch, 31.2; Dextrose, 31.2; Casein, 20.0; corn oil, 6.4; dl-Methionine, 0.3; Vitamine mix, 1.0; AIN-76 mineral mix, 4.9 and fiber, 5.0. The experiment was conducted in a Canadian Council on Animal Care approved facility in accordance with the CCAC Guide for Care and Use of Experimental Animals.
On day 1 of the study, the animals of the appropriate groups were bilaterally ovariectomized (OVX) under isoflurane anesthesia. […] The treatment with EM-652.HCl or vehicle alone (0.4% methylcellulose in water) was initiated on day 2 of the study. The compound or vehicle was given once daily by oral gavage in 0.5 ml/rat for 20 days. Body weights and food consumption were recorded every 2 days.
Approximately 24 hours after the last dosing, overnight fasted animals were anesthesized with ketamine-xylazine and blood drawn by cardiac puncture. The blood was collected as well as white and brown adipose tissues.
Body weight, food intake, and body gains in energy, fat, and protein were determined according to Deshaies et al, Am. J. Physiol., 1997; 273, E355-E362 (1997).
Lipoprotein lipase activities were determined according to Deshaies et al, Am. J. Physiol., 1997; 273, E355-E362 (1997).

In experiment [1] the test system is ovariectomized female rats. In words: 20-day treatment with EM-652.HCl, estradiol and DHEA, body fat (Example 6). The format is in vivo, Rattus norvegicus. The settings on record: OVX rats. An excerpt:
d) Diet: Certified Rodent feed (Lab Diet #5002, pellets) and tap water were provided ad libitum during the acclimation period. During the study period, the rats received an enriched carbonhydrate diet ad libitum. The enriched diet (diet #3) was composed of (g/100 g): Corn starch, 31.2; Dextrose, 31.2; Casein, 20.0; Corn oil, 6.4; dl-Methionine, 0.3; Vitamin mix, 1.0; AIN-76 mineral mix, 4.9; Fiber, 5.0.
80 rats were assigned to 8 groups of 10 rats for the conduct of the study outlined below:
On day 0 of the study, rats from groups 2 to 8 were ovariectomized, by bilateral flank incision, under Isoflurane-induced anesthesia. Rats from group 1 were sham-operated.
The administration of the test articles or vehicle began on Day 1 (the day following the ovariectomy). The tested compounds were given as suspensions in 0.4% methylcellulose by oral gavage (0.5 ml/gavage) for 20 days.
On day 21 of the study (prior to the necropsy), body composition was determined on whole body skeleton of animals under Isoflurane-induced anesthesia using dual energy x-ray absorptiometry (DEXA; QDR 4500A, Hologic) in order to determine the effect of treatments on fat percentage.
Right and left retroperitoneal adipose tissue were collected and weighed.

Experiment [2] concerns ovariectomized female rats. Put plainly: SERM comparison, energy balance and lipid-lipoprotein metabolism (Example 10). The experiment is classed as in vivo, Rattus norvegicus. Particulars: OVX rats, high carbohydrate diet, 0.5 mg/rat oral gavage, 20 days. As to the method:
For this purpose, tested compounds were administered by oral gavage for 20 days (0.5 mg/rat for each compound; 0.5 ml/rat) in 0.4% methylcellulose to ovariectomized female rats.
d) Diet: • During acclimation period, rats received a certified rodent diet (Lab Diet #5002, pellet) and tap water ad libitum while during study period, they received a high carbonhydrate diet (diet #3) and tap water ad libitum. The diet was composed of (g/100 g): Corn starch, 31.2; Dextrose, 31.2; Casein, 20.0; corn oil, 6.4; dl-Methionine, 0.3; Vitamine mix, 1.0; AIN-76 mineral mix, 4.9; fiber, 5.0. Rats were fasted (with access to water only) around 07 h00 the morning of their necropsy Randomization:
Test group: Seventy-seven rats were assigned to 8 groups of 9-10 rats for conduct of the study outlined below.
On day 0 of the study, rats from group 2 to 8 were ovariectomized (by bilateral flank incision) under Isoflurane anesthesia. Rats from group 1 were sham-operated.
Rats were weighed on day 0 (surgery) and then, every 2 days during study period as well as on the day of necropsy.
Food consumption was evaluated every 2 days.
In order to determine the effect of treatments on fat percentage, body composition was measured on Day 17 of the study using dual energy x-ray absorptiometry (DEXA; QDR 4500A, Hologic, Waltham, Mass.).
On day 21 of the study, approximately 24 hours after the last dosing and 6 hours of fasting, animals under Ketamine-Xylazine anesthesia were killed by exsanguination at the abdominal aorta.
Blood lipids (Total cholesterol and Triglycerides) and glucose were measured on frozen serum samples using the Boehringer Mannheim Diagnostic Hitachi 911 Analyzer (Boehringer Mannheim Diagnostic Laboratory Systems). Circulating hormones and substrates (Insulin and leptin) were measured on serum sample using the following kits: • Insulin: Linco RIA kit • Leptin: Linco RIA kit Organs and Tissues Collected
The following tissues were collected and weighed: • Muscle (right soleus and right VLM), fat (right retroperitoneal and right inguinal), and brown adipose tissue.
A piece of ˜0.1 g of all tissues (except uterus and vagina) were frozen in liquid nitrogen and kept at −80 C for later determination of lipoprotein-lipase (LPL) activity.

Another experiment concerns ovariectomized rat. In words: 35-week treatment, total body fat and body weight of ovariectomized rat (Example 1). The format is in vivo. The settings on record: OVX rats; for Body Weight at Necropsy: 37 weeks. Here is the method: The animals were housed three per cage and were allowed free access to tap water and a pelleted certified rodent feed (Lab Diet 5002, Ralston Purina, St-Louis, Mo.). The experiment was conducted in a Canadian Council on Animal Care approved facility in accordance with the CCAC Guide for Care and Use of Experimental Animals. […] The appropriate compound or vehicle alone was given once daily by oral gavage in 0.5 ml/rat for 37 weeks. Approximately 24 hours after the last dosing, overnight fasted animals were killed by exsanguination at the abdominal aorta under isoflurane anesthesia. After 35 weeks of treatment, individual rats under anesthesia with isoflurane had their whole body skeleton as well as their right femur scanned using dual energy x-ray absorptiometry (DEXA; QDR 4500A, Hologic, Waltham, Mass.) and a Regional High Resolution Scan software. The scan field size used for the whole body was 30.492×17.912 cm, the resolution was 0.1512×0.0640 cm and the scan speed was 2.499 mm/sec. The fat body composition of the whole body was determined. Data are expressed as the means±SEM. Statistical significance was determined according to the multiple-range test of Duncan-Kramer (1956).

[3] abbreviates: EM-652.HCl 0.5 mg/rat oral once daily, E2 implant.

Marks after values point to notes of the source that are not given here.

As for `C[C@]12CC[C@@H]3c4ccc(O)cc4CC[C@H]3[C@@H]1CC[C@@H]2O` [E2, estradiol], the “total energy intake, higher than that of intact animals” value in the experiment on ovariectomized rats is on record as 17%. Besides, in the experiment on ovariectomized rats (setting [3]), the Digestible energy intake is given as 5511^a kJ and the Enegery gain turned out to be 903 kJ. The “Apparent energy (expenditure)” value with ovariectomized rats (calculated from energy intake and energy gain) is recorded as 4609^a kJ. Besides, in experiment [1] (20 days), the “decrease of body fat” value amounted to 46% and the “decrease of retroperitoneal adipose tissue” value worked out at 78%. The Retroperitoneal adipose tissue in experiment [1] (enriched carbohydrate diet, 20 days oral, EM-652.HCl 0.5, E2 0.5, DHEA 100 mg/rat) was found to be 0.81 ± 0.17 g. Further, in experiment [1] (enriched carbohydrate diet, 20 days oral, EM-652.HCl 0.5, E2 0.5, DHEA 100 mg/rat, DEXA day 21), the Fat % was 10.3 ± 0.6%. For the same compound, in experiment [2], the “Brown adipose tissue Lipoprotein lipase activity” value worked out at 1198 ± 62 μU/g protein, the “Brown adipose tissue weight” value is reported as 0.211 ± 0.021 g, the Cumulative food intake was determined as 255 ± 9 g and the Serum glucose worked out at 11.8 ± 1.4 mmol/L. In experiment [2], the Serum insulin is reported as 0.070 ± 0.007 nmol/L, the Serum leptin was 0.309 ± 0.097 ng/mL, the Serum total cholesterol worked out at 2.03 ± 0.15 mmol/L and the Serum triglycerides turned out to be 0.43 ± 0.04 mmol/L. For the same compound, in experiment [2], the “Soleus muscle Lipoprotein lipase activity” value was determined as 10.9 ± 2.0 μU/g protein, the Soleus muscle weight is on record as 0.086 ± 0.003 g, the Total weight is on record as 198 ± 4 g and the VastusLateralis muscle weight is listed as 0.718 ± 0.026 g. Moreover, in experiment [2], the “White adipose tissue inguinal Lipoprotein lipase activity” value is listed as 416 ± 74 μU/g protein, the “White adipose tissue inguinal weight” value is 0.158 ± 0.019 g and the “White adipose tissue retroperitoneal Lipoprotein lipase activity” value was 1442 ± 243 μU/g protein.

As to `CC1=C(c2ccc(OC(=O)C(C)(C)C)cc2)[C@H](c2ccc(OCCN3CCCCC3)cc2)Oc2cc(OC(=O)C(C)(C)C)ccc21` [EM-800], the “decrease of the OVX-induced stimulation of body fat (DEXA)” value in the experiment with ovariectomized rat (0.01 mg/kg orally once daily, 35 weeks, FIG. 1) turned out to be 78%. The “Body Weight at Necropsy” value in the experiment with ovariectomized rat (0.01 mg/kg orally once daily) was 385 ± 17 g; with ovariectomized rat (0.03 mg/kg orally once daily) it was 364 ± 10 g; with ovariectomized rat (0.1 mg/kg orally once daily), 369 ± 17 g; in the experiment on ovariectomized rat (0.3 mg/kg orally once daily) it was 359 ± 7 g; in the experiment on ovariectomized rat (1 mg/kg orally once daily) it was 368 ± 6 g.

The record behind these values is US8609695B2, “Methods of treating and/or suppressing insulin resistance” (Endorecherche, Inc., priority 1999, dated 2013).
